Patent US20260035359A1, “HERBICIDAL IMIDAZOLE COMPOUNDS” (SYNGENTA CROP PROTECTION AG, priority 2022, published 2026)

Key:
Type in all cases: in vivo
[1] = system: Amaranthus pa/meri (AMAPA); experiment: Post-emergence herbicidal glasshouse test; conditions: 250 g/ha, sprayed after 8 days cultivation, evaluated after 13 days
In short: (§1)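 Spray: acetone/water 50:50 + 0.5% Tween 20, 250 g/ha unless stated. Timing: day 1 pre-em, day 8 post-em. Conditions 24/16° C, 14 h light, 65% RH, watered twice daily. Read-out: % damage at 13 d, scored 1–5 (5=81-100%, 1=0-20%).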

[2] = system: Ipomoea hederacea (IPOHE); experiment: Post-emergence herbicidal glasshouse test; conditions: 250 g/ha, sprayed after 8 days cultivation, evaluated after 13 days
In short: as §1

[3] = system: Amaranthus retoflexus (AMARE); experiment: Post-emergence herbicidal glasshouse test; conditions: 250 g/ha, sprayed after 8 days cultivation, evaluated after 13 days
In short: as §1

[4] = system: Echinochloa crus-gali (ECHCG); experiment: Post-emergence herbicidal glasshouse test; conditions: 250 g/ha, sprayed after 8 days cultivation, evaluated after 13 days
In short: as §1

Setaria faberi (SETFA) [5] = experiment: Post-emergence herbicidal glasshouse test; conditions: 250 g/ha, sprayed after 8 days cultivation, evaluated after 13 days
In short: as §1

[6] = system: Amaranthus pa/meri (AMAPA); experiment: Pre-emergence herbicidal glasshouse test; conditions: 250 g/ha, sprayed after one day cultivation, evaluated after 13 days
In short: as §1

[7] = system: Ipomoea hederacea (IPOHE); experiment: Pre-emergence herbicidal glasshouse test; conditions: 250 g/ha, sprayed after one day cultivation, evaluated after 13 days
In short: as §1

[8] = system: Amaranthus retoflexus (AMARE); experiment: Pre-emergence herbicidal glasshouse test; conditions: 250 g/ha, sprayed after one day cultivation, evaluated after 13 days
In short: as §1

[9] = system: Echinochloa crus-gali (ECHCG); experiment: Pre-emergence herbicidal glasshouse test; conditions: 250 g/ha, sprayed after one day cultivation, evaluated after 13 days
In short: as §1

Setaria faberi (SETFA) [10] = experiment: Pre-emergence herbicidal glasshouse test; conditions: 250 g/ha, sprayed after one day cultivation, evaluated after 13 days
In short: as §1

| SMILES | percentage damage caused to the plant, AMAPA [1] | percentage damage caused to the plant, IPOHE [2] | percentage damage caused to the plant, AMARE [3] | percentage damage caused to the plant, ECHCG [4] | percentage damage caused to the plant, SETFA (Setaria faberi (SETFA) [5]) | percentage damage caused to the plant, AMAPA [6] | percentage damage caused to the plant, IPOHE [7] | percentage damage caused to the plant, AMARE [8] | percentage damage caused to the plant, ECHCG [9] | percentage damage caused to the plant, SETFA (Setaria faberi (SETFA) [10]) |
| --- | --- | --- | --- | --- | --- | --- | --- | --- | --- | --- |
| CCCCc1nc(C(F)(F)F)cn1Cc1ncc(Cl)cn1 [Compound 1.026] | 5 (5=81-100%) | 4 (4=61-80%) | 5 (5=81-100%) | 2 (2=21-40%) | 2 (2=21-40%) | 5 (5=81-100%) | 3 (3=41-60%) | 5 (5=81-100%) | 3 (3=41-60%) | 5 (5=81-100%) |
| CCCCc1nc(C(F)F)cn1Cc1ncc(Cl)cc1F [Compound 1.054, 2-[[2-butyl-4-(difluoromethyl)imidazol-1-yl]methyl]-5-chloro-3-fluoro-pyridine] | 2 (2=21-40%) | 2 (2=21-40%) | 3 (3=41-60%) | 1 (1=0-20%) | 1 (1=0-20%) | 4 (4=61-80%) | 1 (1=0-20%) | 3 (3=41-60%) | 1 (1=0-20%) | 1 (1=0-20%) |
